Read-outs that look alike come from different tables or passages of the source.

Usually Kd stands for the constant that tells how readily two partners part at equilibrium. As a reminder, the residence time is the mean lifetime of the complex, commonly the reciprocal of the off-rate.

In the experiment the target is WDR5 protein (Homo sapiens (Human), UniProt P61964). As to the kind of experiment: Surface Plasmon Resonance (SPR) assay. The conditions noted are these: SPR; for residence time: τ=1/koff, read-out: Residence Time (t, min). The format is binding.
The mark [1] stands for this setting: Table 1, read-out: WDR5 binding affinity (KD).
[2] abbreviates: Table 2, read-out: WDR5 binding affinity SPR (KD).

Method: Exemplary compounds of the application were dissolved in 100% DMSO at 10 mM, assayed fresh, and then stored at −20° C. for repeat studies and other experiments. Full length WDR5 with an N-terminal His tag and C-terminal AviTag (Avidity Inc.) was expressed in E. coli with coexpression of BirA to biotin label the protein in vivo. Purification was via Ni-NTA. The purified WDR5 protein has a molecular weight of 41976 Da.
SPR studies were performed using a Biacore™ T200 instrument (GE Health Sciences Inc.). Biotinylated WDR5 protein (approximately 3000RU) was stably captured to streptavidin coupled SA chips according to the manufacture's protocol (GE Health Sciences Inc.). The running buffer used was HBS-EP (20 mM Hepes pH 7.4, 150 mM NaCl, 3 mM EDTA, 0.05% P-20) plus 5% DMSO with a flow rate of 40p1/min. For SPR analysis, 5 different concentrations of each exemplary compound of the application were sprayed into 96 or 384 well plates using an HP D300 digital dispenser. […] Curve fitting and KD calculations were performed with the Biacore T200 Evaluation software (GE Health Sciences Inc).

With `COc1cc(C(F)(F)F)c(C(=O)Nc2cc(-c3cc(CN4CCC(C(C)C)C4)ccc3F)ccc2N2CCN(C)CC2)cn1` (stereo in doubt) [Example 53, (R)—N-(2′-fluoro-5′-((3-isopropylpyrrolidin-1-yl)methyl)-4-(4-methylpiperazin-1-yl)-[1,1′-biphenyl]-3-yl)-6-methoxy-4-(trifluoromethyl)nicotinamide], the Kd is, setting by setting: under setting [1], more than 200 nM; under setting [2], more than 200 nM.

For the compound `CN1CCN(c2ccc(-c3cc(C(N)=O)c(O)cc3F)cc2NC(=O)c2c[nH]c(=O)cc2C(F)(F)F)CC1` [Example 4, N-(5′-carbamoyl-2′-fluoro-4′-hydroxy-4-(4-methylpiperazin-1-yl)-[1,1′-biphenyl]-3-yl)-6-oxo-4-(trifluoromethyl)-1,6-dihydropyridine-3-carboxamide], the residence time came to 0.88 min. Moreover, the Kd under setting [1] is 86 nM. The equilibrium dissociation constant (Kd) under setting [2] was 86 nM.

Take `CN1CCN(c2ccc(-c3cc(OC(F)(F)F)ccc3F)cc2NC(=O)c2c[nH]c(=O)cc2C(F)(F)F)CC1` [Example 5, N-(2′-fluoro-4-(4-methylpiperazin-1-yl)-5′-(trifluoromethoxy)-[1,1′-biphenyl]-3-yl)-6-oxo-4-(trifluoromethyl)-1,6-dihydropyridine-3-carboxamide]: the residence time came to 1.88 min. Also, under setting [1], the dissociation constant Kd came out at 29 nM. The dissociation constant (Kd) under setting [2] was 29 nM.

For `COc1cccc(C(=O)Nc2cc(-c3cc(CN4CCOCC4)ccc3F)ccc2N2CCN(C)CC2)c1` [Example 10, N-(2′-fluoro-4-(4-methylpiperazin-1-yl)-5′-(morpholinomethyl)-[1,1′-biphenyl]-3-yl)-3-methoxybenzamide], the dissociation constant (Kd) is 1000 nM under setting [1] and 1000 nM under setting [2].

As to `Cc1c(F)ccc(C(=O)Nc2cc(-c3cc(CN4CCOCC4)ccc3F)ccc2N2CCN(C)CC2)c1Cl` [Example 12, 2-chloro-4-fluoro-N-(2′-fluoro-4-(4-methylpiperazin-1-yl)-5′-(morpholinomethyl)-[1,1′-biphenyl]-3-yl)-3-methylbenzamide], the residence time amounted to 0.6 min. Moreover, the Kd under setting [1] worked out at 93 nM. The dissociation constant (Kd) under setting [2] was 93 nM.

For `COC(=O)c1ccc(F)c(-c2ccc(N3CCN(C)CC3)c(NC(=O)c3c[nH]c(=O)cc3C(F)(F)F)c2)c1` [Example 14, methyl 6-fluoro-4′-(4-methylpiperazin-1-yl)-3′-(6-oxo-4-(trifluoromethyl)-1,6-dihydropyridine-3-carboxamido)-[1,1′-biphenyl]-3-carboxylate], the residence time was found to be 1.36 min. Further, under setting [1], the Kd was determined as 26 nM. Further, under setting [2], the dissociation constant (Kd) came out at 26 nM.

As for `CN1CCN(c2ccc(-c3cc(CNC4CC4)ccc3F)cc2NC(=O)c2c[nH]c(=O)cc2C(F)(F)F)CC1` [Example 17, N-(5′-((cyclopropylamino)methyl)-2′-fluoro-4-(4-methylpiperazin-1-yl)-[1,1′-biphenyl]-3-yl)-6-oxo-4-(trifluoromethyl)-1,6-dihydropyridine-3-carboxamide], the residence time turned out to be 4.25 min. Besides, the equilibrium dissociation constant (Kd) under setting [1] was 14 nM. Also, the dissociation constant (Kd) under setting [2] amounted to 14 nM.

For `Cc1cc(C(=O)Nc2cc(-c3ccc(OC4CCOCC4)nc3F)ccc2N2CCN(C)CC2)cc(C)c1F` [Example 19, 4-fluoro-N-(5-(2-fluoro-6-((tetrahydro-2H-pyran-4-yl)oxy)pyridin-3-yl)-2-(4-methylpiperazin-1-yl)phenyl)-3,5-dimethylbenzamide], the residence time stood at 1.44 min. Further, the dissociation constant (Kd) under setting [1] came to 71 nM. Also, the Kd under setting [2] was determined as 71 nM.

As to `CN1CCN(c2ccc(-c3cc(CN4CCOCC4)ccc3F)cc2NC(=O)c2n[nH]c(=O)cc2C(F)(F)F)CC1` [Example 20, N-(2′-fluoro-4-(4-methylpiperazin-1-yl)-5′-(morpholinomethyl)-[1,1′-biphenyl]-3-yl)-6-oxo-4-(trifluoromethyl)-1,6-dihydropyridazine-3-carboxamide], the residence time turned out to be 0.41 min. For the same compound, the dissociation constant (Kd) under setting [1] came out at 76 nM. Further, the dissociation constant (Kd) under setting [2] was determined as 76 nM.

For the compound `CN1CCN(c2ccc(-c3cc(OCC4CC4)c(F)cc3F)cc2NC(=O)c2c[nH]c(=O)cc2C(F)(F)F)CC1` [Example 21, N-(5′-(cyclopropylmethoxy)-2′,4′-difluoro-4-(4-methylpiperazin-1-yl)-[1,1′-biphenyl]-3-yl)-6-oxo-4-(trifluoromethyl)-1,6-dihydropyridine-3-carboxamide], the residence time stood at 1.75 min. For the same compound, under setting [1], the Kd is 19 nM. Also, the dissociation constant Kd under setting [2] came out at 19 nM.

As to `CN1CCN(c2ccc(-c3ccc(N4CCCC4)nc3F)cc2NC(=O)c2c[nH]c(=O)cc2C(F)(F)F)CC1` [Example 22, N-(5-(2-fluoro-6-(pyrrolidin-1-yl)pyridin-3-yl)-2-(4-methylpiperazin-1-yl)phenyl)-6-oxo-4-(trifluoromethyl)-1,6-dihydropyridine-3-carboxamide], the residence time worked out at 2.3 min. For the same compound, the Kd under setting [1] was determined as 17 nM. For the same compound, under setting [2], the dissociation constant (Kd) was 17 nM.

On to `CN1CCN(c2ccc(-c3cccc(CN4CCOCC4)c3F)cc2NC(=O)c2c[nH]c(=O)cc2C(F)(F)F)CC1` [Example 23, N-(2′-fluoro-4-(4-methylpiperazin-1-yl)-3′-(morpholinomethyl)-[1,1′-biphenyl]-3-yl)-6-oxo-4-(trifluoromethyl)-1,6-dihydropyridine-3-carboxamide], for which the residence time is 0.56 min. Moreover, the Kd under setting [1] was 79 nM. The Kd under setting [2] came out at 79 nM.

On to `Cc1cccc(C(=O)Nc2cc(-c3cc(CN4CCOCC4)ccc3F)ccc2N2CCN(C)CC2)c1` [Example 24, N-(2′-fluoro-4-(4-methylpiperazin-1-yl)-5′-(morpholinomethyl)-[1,1′-biphenyl]-3-yl)-3-methylbenzamide], for which the Kd is, setting by setting: under setting [1], 5030 nM; under setting [2], 5030 nM.

As for `CN1CCN(c2ccc(-c3ccccc3F)cc2NC(=O)c2c[nH]c(=O)cc2C(F)(F)F)CC1` [Example 25, N-(2′-fluoro-4-(4-methylpiperazin-1-yl)-[1,1′-biphenyl]-3-yl)-6-oxo-4-(trifluoromethyl)-1,6-dihydropyridine-3-carboxamide], the residence time is 0.94 min. Under setting [1], the equilibrium dissociation constant (Kd) amounted to 102 nM. Moreover, the Kd under setting [2] turned out to be 102 nM.

`COc1cc(C(F)(F)F)c(C(=O)Nc2cc(-c3cc(CN4CCC(N5CCOCC5)CC4)ccc3F)ccc2N2CCN(C)CC2)cn1` [Example 52, N-(2′-fluoro-4-(4-methylpiperazin-1-yl)-5′-((4-morpholinopiperidin-1-yl)methyl)-[,1′-biphenyl]-3-yl)-6-methoxy-4-(trifluoromethyl)nicotinamide]: the Kd by setting is: under setting [1], more than 200 nM; under setting [2], more than 200 nM.

For `COc1cc(C(F)(F)F)c(C(=O)Nc2cc(-c3cc(CN4CCN(C(C)=O)CC4)ccc3F)ccc2N2CCN(C)CC2)cn1` [Example 54, N-(5′-((4-acetylpiperazin-1-yl)methyl)-2′-fluoro-4-(4-methylpiperazin-1-yl)-[1,1′-biphenyl]-3-yl)-6-methoxy-4-(trifluoromethyl)nicotinamide], the dissociation constant Kd by setting is: under setting [1], more than 200 nM; under setting [2], more than 200 nM.

As to `COc1cc(C(F)(F)F)c(C(=O)Nc2cc(-c3cc(CN4CCC(F)CC4)ccc3F)ccc2N2CCN(C)CC2)cn1` [Example 55, N-(2′-fluoro-5′-((4-fluoropiperidin-1-yl)methyl)-4-(4-methylpiperazin-1-yl)-[1,1′-biphenyl]-3-yl)-6-methoxy-4-(trifluoromethyl)nicotinamide], the Kd reads like this: under setting [1], more than 200 nM; under setting [2], more than 200 nM.

With `COc1cc(C(F)(F)F)c(C(=O)Nc2cc(-c3cc(CN4C5COCC4C5)ccc3F)ccc2N2CCN(C)CC2)cn1` [Example 56, N-(5′-(3-oxa-6-azabicyclo[3.1.1]heptan-6-ylmethyl)-2′-fluoro-4-(4-methylpiperazin-1-yl)-[1,1′-biphenyl]-3-yl)-6-methoxy-4-(trifluoromethyl)nicotinamide], the Kd reads like this: under setting [1], more than 200 nM; under setting [2], more than 200 nM.

`COc1cc(C(F)(F)F)c(C(=O)Nc2cc(-c3cc(CN4CC[C@@H](S(C)(=O)=O)C4)ccc3F)ccc2N2CCN(C)CC2)cn1` [Example 57, (R)—N-(2′-fluoro-4-(4-methylpiperazin-1-yl)-5′-((3-(methylsulfonyl)pyrrolidin-1-yl)methyl)-[1,1′-biphenyl]-3-yl)-6-methoxy-4-(trifluoromethyl)nicotinamide]: the dissociation constant Kd by setting is: under setting [1], more than 200 nM; under setting [2], more than 200 nM.

Take `COc1cc(C(F)(F)F)c(C(=O)Nc2cc(-c3cc(CN(C)[C@H]4CCOC4)ccc3F)ccc2N2CCN(C)CC2)cn1` [Example 58, (S)—N-(2′-fluoro-5′-((methyl(tetrahydrofuran-3-yl)amino)methyl)-4-(4-methylpiperazin-1-yl)-[1,1′-biphenyl]-3-yl)-6-methoxy-4-(trifluoromethyl)nicotinamide]: the Kd is more than 200 nM under setting [1] and more than 200 nM under setting [2].

On to `COc1cc(C(F)(F)F)c(C(=O)Nc2cc(-c3cc(CN4CCOC(C)(C)C4)ccc3F)ccc2N2CCN(C)CC2)cn1` [Example 59, N-(5′-((2,2-dimethylmorpholino)methyl)-2′-fluoro-4-(4-methylpiperazin-1-yl)-[1,1′-biphenyl]-3-yl)-6-methoxy-4-(trifluoromethyl)nicotinamide], for which the Kd reads like this: under setting [1], more than 200 nM; under setting [2], more than 200 nM.

`CN1CCN(c2ccc(-c3cc(CN4CCOCC4)ccc3F)cc2NC(=O)c2c[nH]c(=O)cc2C(F)(F)F)CC1COC(=O)C(C)(C)C` (stereo not shown) [Example 64, (4-(2′-fluoro-5′-(morpholinomethyl)-3-(6-oxo-4-(trifluoromethyl)-1,6-dihydropyridine-3-carboxamido)-[1,1′-biphenyl]-4-yl)-1-methylpiperazin-2-yl)methyl pivalate]: the Kd is, setting by setting: under setting [1], more than 200 nM; under setting [2], 102 nM.

`C[C@@H]1CN(c2ccc(-c3c(F)ccc(C#N)c3F)cc2NC(=O)c2c[nH]c(=O)cc2C(F)(F)F)C[C@H](C)N1C` [Example 78, N-(3′-cyano-2′,6′-difluoro-4-((3S,5R)-3,4,5-trimethylpiperazin-1-yl)-[1,1′-biphenyl]-3-yl)-6-oxo-4-(trifluoromethyl)-1,6-dihydropyridine-3-carboxamide]: the residence time was 2.5 min. The Kd under setting [1] was 39 nM. Also, under setting [2], the dissociation constant Kd was determined as 39 nM.

(Values after patent publication US11174250B2, “Substituted carboxamides as inhibitors of WDR5 protein-protein binding” (PROPELLON THERAPEUTICS INC., priority 2016, dated 2021).)
